Tests used:
Format in all cases: in vivo
[1] = system: Pseudoperonospora cubensis; assay: Test 2: control effect against cucumber downy mildew; conditions: Pseudoperonospora cubensis, 120 h, control value vs untreated section
Summary of the method: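 Cucumber (Sagami hanjiro) at 2-leaf stage sprayed with 4 ppm compound from 10% wettable powder in Tween20 (1/5000); inoculated next day with P. cubensis zoospores, 1.0×10^4 units/ml, 16 hr moist chamber at 22° C. Lesion area rate scored 5 days post-inoculation; control value = (1 − treated/untreated onset area rate)×100.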

Pythium graminicola = assay: Test 4: control effect against rice damping-off by the Pythium fungus (soil lavage); conditions: 1,000 ppm, 2.5 ml test suspension drenched on contaminated soil, rice (koshihikari)
Summary of the method: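 Compound at 1,000 ppm in 1/5000 Tween20 was drenched (2.5 ml) onto Koshihikari rice seeds, 3 pre-sprouted seeds per cell, sown in soil infested with Pythium graminicola (5 g/kg). Regime: 28 °C for 72 h, 5 °C for 2 days, then 25 °C for 14 days. Dead and stunted seedlings were scored into an onset rate, and control value = (1 − treated/untreated) × 100.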

Phytophthora infestans = assay: whole plant or invertebrate; conditions: Phytophthora infestans, in Solanum lycopersicum, 96 h, read-out: control value (Test 1)
Plasmopara viticola = assay: Test 3: control effect against grape downy mildew; conditions: Plasmopara viticola, 120 h, control value vs untreated section
Summary of the method: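 Neomuscat grape seedlings were sprayed with compound at 4 ppm, diluted from a 10% wettable powder in Tween20 solution. One day later they were inoculated with Plasmopara viticola zoospores at 1.0×10^4 units/ml and held moist at 22° C. for 16 hr. Control value was derived from leaf lesion area at 5 days versus untreated leaves.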

Row | SMILES | pest or weed control at 4 µg/mL [1] [%] | pest or weed control at 1000 ppm (Pythium graminicola) [%] | pest or weed control at 4 µg/mL (Phytophthora infestans) [%] | pest or weed control at 4 µg/mL (Plasmopara viticola) [%]
1 | Cc1cc(C(F)(F)F)nn1CC(=O)N1CCC(c2nc(C3OCc4cccc(CC#N)c4CO3)cs2)CC1 (stereo not shown) [Compound 1-72, 4-[4-[6-(cyanomethyl)-1,5-dihydro-3H-2,4-benzodioxepin-3-yl]-2-thiazolyl]-1-[2-[5-methyl-3-(trifluoromethyl)-1H-pyrazole-1-yl]acetyl]piperidine] | 100 | ≥ 90 | 100 | 100
2 | CC(=O)Oc1cccc2c1COC(c1csc(C3CCN(C(=O)Cn4nc(C(F)(F)F)cc4C)CC3)n1)OC2 (stereo not shown) [Compound 1-144, 4-[4-(6-acetoxy-1,5-dihydro-3H-2,4-benzodioxepin-3-yl)-2-thiazolyl]-1-[2-[5-methyl-3-(trifluoromethyl)-1H-pyrazole-1-yl]acetyl]piperidine] | 100 | ≥ 90 | 100 | 100
3 | Cc1ccc(C)c(CC(=O)N2CCC(c3nc(C4OCc5cccc(F)c5CO4)cs3)CC2)c1 (stereo not shown) [Compound 2-7, 4-[4-(6-fluoro-1,5-dihydro-3H-2,4-benzodioxepin-3-yl)-2-thiazolyl]-1-[2-(2,5-dimethylphenyl)acetyl]piperidine] | 100 | ≥ 90 | 100 | 100
4 | O=C(Cc1cc(Cl)ccc1Cl)N1CCC(c2nc(C3OCc4cccc(OC(F)F)c4CO3)cs2)CC1 (stereo not shown) [Compound 2-48, 4-[4-[6-(difluoromethoxy)-1,5-dihydro-3H-2,4-benzodioxepin-3-yl]-2-thiazolyl]-1-[2-(2,5-dichlorophenyl)acetyl]piperidine] | 100 | ≥ 90 | 100 | 100
5 | Cc1cc(C(F)(F)F)nn1CC(=O)N1CCC(c2nc(C3OCc4c(OS(C)(=O)=O)ccc([N+](=O)[O-])c4CO3)cs2)CC1 (stereo not shown) [Compound 1-32, 4-[4-(6-methylsulfonyloxy-9-nitro-1,5-dihydro-3H-2,4-benzodioxepin-3-yl)-2-thiazolyl]-1-[2-[5-methyl-3-(trifluoromethyl)-1H-pyrazole-1-yl]acetyl]piperidine] | 100 | ≥ 90 | 100 | 100
6 | O=C(Cn1nc(C(F)F)cc1C(F)F)N1CCC(c2nc(C3OCc4c(F)ccc(F)c4CO3)cs2)CC1 [Compound 1-51, 4-[4-(6,9-difluoro-1,5-dihydro-3H-2,4-benzodioxepin-3-yl)-2-thiazolyl]-1-[2-[3,5-bis(difluoromethyl)-1H-pyrazole-1-yl]acetyl]piperidine] | 100 | ≥ 90 | 100 | 100
7 | Cc1cc(C(F)(F)F)nn1CC(=O)N1CCC(c2nc(C3OCc4cccc(OS(C)(=O)=O)c4CO3)cs2)CC1 (stereo not shown) [Compound 1-6, 4-[4-(6-methylsulfonyloxy-1,5-dihydro-3H-2,4-benzodioxepin-3-yl)-2-thiazolyl]-1-[2-[5-methyl-3-(trifluoromethyl)-1H-pyrazole-1-yl]acetyl]piperidine] | 100 | ≥ 90 | 100 | 100
8 | Cc1cc(C(F)(F)F)nn1CC(=O)N1CCC(c2nc(C3OCc4cccc(C=O)c4CO3)cs2)CC1 (stereo not shown) [Compound 1-70, 4-[4-(6-formyl-1,5-dihydro-3H-2,4-benzodioxepin-3-yl)-2-thiazolyl]-1-[2-[5-methyl-3-(trifluoromethyl)-1H-pyrazole-1-yl]acetyl]piperidine] | 60 | ≥ 90 | 100 | 100
9 | O=C(Cn1nc(C(F)(F)F)cc1C(F)(F)F)N1CCC(c2nc(C3OCc4c(F)c(F)c(F)c(F)c4CO3)cs2)CC1 [Compound 1-84, 4-[4-(6,7,8,9-tetrafluoro-1,5-dihydro-3H-2,4-benzodioxepin-3-yl)-2-thiazolyl]-1-[2-[3,5-bis(trifluoromethyl)-1H-pyrazole-1-yl]acetyl]piperidine] | 100 | ≥ 90 | 100 | 100
10 | Cc1cc(C(F)(F)F)nn1CC(=O)N1CCC(c2nc(C3OCc4cccc(OC(=O)C5CC5)c4CO3)cs2)CC1 (stereo not shown) [Compound 1-34, 4-[4-(6-cyclopropylcarbonyloxy-1,5-dihydro-3H-2,4-benzodioxepin-3-yl)-2-thiazolyl]-1-[2-[5-methyl-3-(trifluoromethyl)-1H-pyrazole-1-yl]acetyl]piperidine] | 100 | ≥ 90 | 100 | 100
11 | O=C(Cn1nc(C(F)(F)F)cc1C(F)(F)F)N1CCC(c2nc(C3OCc4ccc([N+](=O)[O-])cc4CO3)cs2)CC1 (stereo not shown) [Compound 1-95, 4-[4-(7-nitro-1,5-dihydro-3H-2,4-benzodioxepin-3-yl)-2-thiazolyl]-1-[2-[3,5-bis(trifluoromethyl)-1H-pyrazole-1-yl]acetyl]piperidine] | 100 | ≥ 90 | 100 | 100
12 | Cc1ccc(C)c(NC(=O)N2CCC(c3nc(C4OCc5cccc(OS(C)(=O)=O)c5CO4)cs3)CC2)c1 (stereo not shown) [Compound 2-5, 4-[4-(6-methylsulfonyloxy-1,5-dihydro-3H-2,4-benzodioxepin-3-yl)-2-thiazolyl]-1-[N-(2,5-dimethylphenyl)carbamoyl]piperidine] | 100 | ≥ 90 | 100 | 100
13 | COc1ccc(Cl)c2c1COC(c1csc(C3CCN(C(=O)Cc4cc(Cl)ccc4Cl)CC3)n1)OC2 (stereo not shown) [Compound 2-23, 4-[4-(6-chloro-9-methoxy-1,5-dihydro-3H-2,4-benzodioxepin-3-yl)-2-thiazolyl]-1-[2-(2,5-dichlorophenyl)acetyl]piperidine] | 100 | ≥ 90 | 100 | 100
14 | CS(=O)(=O)Oc1ccc(F)c2c1COC(c1csc(C3CCN(C(=O)Cn4nc(C(F)F)cc4C(F)F)CC3)n1)OC2 (stereo not shown) [Compound 1-62, 4-[4-(6-fluoro-9-methylsulfonyloxy-1,5-dihydro-3H-2,4-benzodioxepin-3-yl)-2-thiazolyl]-1-[2-[3,5-bis(difluoromethyl)-1H-pyrazole-1-yl]acetyl]piperidine] | 100 | ≥ 90 | 100 | 100
15 | Cc1ccc(C)c(N(C)C(=O)N2CCC(c3nc(C4OCc5cccc(OS(C)(=O)=O)c5CO4)cs3)CC2)c1 (stereo not shown) [Compound 2-56, 4-[4-(6-methylsulfonyloxy-1,5-dihydro-3H-2,4-benzodioxepin-3-yl)-2-thiazolyl]-1-[N-(2,5-dimethylphenyl)-N-methylcarbamoyl]piperidine] | 30 | ≥ 90 | 90 | 70
16 | Cc1cc(C(F)(F)F)nn1CC(=O)N1CCC(c2nc(C3OCc4cccc(C=NO)c4CO3)cs2)CC1 (stereo not shown) [Compound 1-96, 4-[4-[6-(hydroxyimino)methyl-1,5-dihydro-3H-2,4-benzodioxepin-3-yl]-2-thiazolyl]-1-[2-[5-methyl-3-(trifluoromethyl)-1H-pyrazole-1-yl]acetyl]piperidine] | 100 | ≥ 90 | 100 | 100
17 | O=C(Cn1nc(C(F)(F)F)cc1C(F)(F)F)N1CCC(c2nc(C3OCc4c(F)ccc(F)c4CO3)cs2)CC1 [Compound 1-50, 4-[4-(6,9-difluoro-1,5-dihydro-3H-2,4-benzodioxepin-3-yl)-2-thiazolyl]-1-[2-[3,5-bis(trifluoromethyl)-1H-pyrazole-1-yl]acetyl]piperidine] | 100 | ≥ 90 | 100 | 100
18 | Cc1cc(C(F)(F)F)nn1CC(=O)N1CCC(c2nc(C3OCc4cccc(OS(=O)(=O)C(F)(F)F)c4CO3)cs2)CC1 (stereo not shown) [Compound 1-36, 4-[4-[6-(trifluoromethyl)sulfonyloxy-1,5-dihydro-3H-2,4-benzodioxepin-3-yl]-2-thiazolyl]-1-[2-[5-methyl-3-(trifluoromethyl)-1H-pyrazole-1-yl]acetyl]piperidine] | 100 | ≥ 90 | 100 | 100
19 | Cc1cc(C(F)(F)F)nn1CC(=O)N1CCC(c2nc(C3OCc4ccc(F)cc4CO3)cs2)CC1 (stereo not shown) [Compound 1-11, 4-[4-(7-fluoro-1,5-dihydro-3H-2,4-benzodioxepin-3-yl)-2-thiazolyl]-1-[2-[5-methyl-3-(trifluoromethyl)-1H-pyrazole-1-yl]acetyl]piperidine] | 100 | ≥ 90 | 100 | 100

Reference: patent US10104891B2 (priority 2014, dated 2018)
